pIC50: −log10 of the molar value.
test system: Human immunodeficiency virus; test: Antiviral activity against HIV in presence of 40 mg/mL of purified human serum albumin; format: functional, organism-based; details: Human immunodeficiency virus 1

| SMILES | pIC50 |
| --- | --- |
| Cn1c(=O)c(C(=O)NCC(F)F)c(O)c2ncc(Cc3ccc(F)cc3)cc21 | 5.54 |
| Cn1c(=O)c(C(=O)NCCCO)c(O)c2ncc(Cc3ccc(F)cc3)cc21 | 7.40 |
| C[C@H](CO)NC(=O)c1c(O)c2ncc(Cc3ccc(F)cc3)cc2n(C)c1=O | 7.96 |
| Cn1c(=O)c(C(=O)NC(C)(C)CO)c(O)c2ncc(Cc3ccc(F)cc3)cc21 | 7.55 |
| Cn1c(=O)c(C(=O)NC2(CO)CCCC2)c(O)c2ncc(Cc3ccc(F)cc3)cc21 | 6.74 |
| C[C@H](O)CNC(=O)c1c(O)c2ncc(Cc3ccc(F)cc3)cc2n(C)c1=O | 6.96 |
| C[C@H](CO)CNC(=O)c1c(O)c2ncc(Cc3ccc(F)cc3)cc2n(C)c1=O | 7.74 |
| Cn1c(=O)c(C(=O)NCCCN2CCCC2)c(O)c2ncc(Cc3ccc(F)cc3)cc21 | 7.47 |
| CC(C)CCNC(=O)c1c(O)c2ncc(Cc3ccc(F)cc3)cc2[nH]c1=O | 6.64 |
| CCOCCNC(=O)c1c(O)c2ncc(Cc3ccc(F)cc3)cc2[nH]c1=O | 7.19 |
| CC(C)OCCCNC(=O)c1c(O)c2ncc(Cc3ccc(F)cc3)cc2[nH]c1=O | 6.72 |
| O=C(NCCCO)c1c(O)c2ncc(Cc3ccc(F)cc3)cc2[nH]c1=O | 7.39 |
| O=C(NCCN1CCCCC1)c1c(O)c2ncc(Cc3ccc(F)cc3)cc2[nH]c1=O | 6.76 |
| O=C(NCCCN1CCCC1)c1c(O)c2ncc(Cc3ccc(F)cc3)cc2[nH]c1=O | 6.96 |
| O=C(NCCCN1CCCC1=O)c1c(O)c2ncc(Cc3ccc(F)cc3)cc2[nH]c1=O | 7.51 |
| O=C(NCCN1CCOCC1)c1c(O)c2ncc(Cc3ccc(F)cc3)cc2[nH]c1=O | 7.38 |
| O=C(NCCCN1CCOCC1)c1c(O)c2ncc(Cc3ccc(F)cc3)cc2[nH]c1=O | 7.43 |
| CN1CCN(CCCNC(=O)c2c(O)c3ncc(Cc4ccc(F)cc4)cc3[nH]c2=O)CC1 | 6.96 |
| CCNC(=O)c1c(O)c2ncc(Cc3ccc(F)cc3)cc2n(C)c1=O | 6.19 |

test system: Human immunodeficiency virus; test: Antiviral activity against HIV infected in human MT4 cells; format: functional, organism-based; details: Human immunodeficiency virus 1, MT4

| SMILES | pIC50 |
| --- | --- |
| C[C@H](CO)NC(=O)c1c(O)c2ncc(Cc3ccc(F)cc3)cc2n(C)c1=O | 8.40 |
| O=C(NCCN1CCOCC1)c1c(O)c2ncc(Cc3ccc(F)cc3)cc2[nH]c1=O | 7.49 |

test system: Human immunodeficiency virus; test: Antiviral activity against HIV; format: functional, organism-based; details: Human immunodeficiency virus 1

| SMILES | pIC50 |
| --- | --- |
| Cn1c(=O)c(C(=O)NCC(F)F)c(O)c2ncc(Cc3ccc(F)cc3)cc21 | 9.00 |
| Cn1c(=O)c(C(=O)NCCCO)c(O)c2ncc(Cc3ccc(F)cc3)cc21 | 9.00 |
| C[C@H](CO)NC(=O)c1c(O)c2ncc(Cc3ccc(F)cc3)cc2n(C)c1=O | 8.70 |
| Cn1c(=O)c(C(=O)NC(C)(C)CO)c(O)c2ncc(Cc3ccc(F)cc3)cc21 | 8.52 |
| Cn1c(=O)c(C(=O)NC2(CO)CCCC2)c(O)c2ncc(Cc3ccc(F)cc3)cc21 | 8.52 |
| C[C@H](O)CNC(=O)c1c(O)c2ncc(Cc3ccc(F)cc3)cc2n(C)c1=O | 8.70 |
| C[C@H](CO)CNC(=O)c1c(O)c2ncc(Cc3ccc(F)cc3)cc2n(C)c1=O | 8.52 |
| Cn1c(=O)c(C(=O)NCCCN2CCCC2)c(O)c2ncc(Cc3ccc(F)cc3)cc21 | 8.05 |
| CC(C)CCNC(=O)c1c(O)c2ncc(Cc3ccc(F)cc3)cc2[nH]c1=O | 8.10 |
| CCOCCNC(=O)c1c(O)c2ncc(Cc3ccc(F)cc3)cc2[nH]c1=O | 8.40 |
| CC(C)OCCCNC(=O)c1c(O)c2ncc(Cc3ccc(F)cc3)cc2[nH]c1=O | 8.10 |
| O=C(NCCCO)c1c(O)c2ncc(Cc3ccc(F)cc3)cc2[nH]c1=O | 8.40 |
| O=C(NCCN1CCCCC1)c1c(O)c2ncc(Cc3ccc(F)cc3)cc2[nH]c1=O | 7.42 |
| O=C(NCCCN1CCCC1)c1c(O)c2ncc(Cc3ccc(F)cc3)cc2[nH]c1=O | 7.41 |
| O=C(NCCCN1CCCC1=O)c1c(O)c2ncc(Cc3ccc(F)cc3)cc2[nH]c1=O | 8.30 |
| O=C(NCCN1CCOCC1)c1c(O)c2ncc(Cc3ccc(F)cc3)cc2[nH]c1=O | 8.22 |
| O=C(NCCCN1CCOCC1)c1c(O)c2ncc(Cc3ccc(F)cc3)cc2[nH]c1=O | 8.22 |
| CN1CCN(CCCNC(=O)c2c(O)c3ncc(Cc4ccc(F)cc4)cc3[nH]c2=O)CC1 | 7.55 |
| CCNC(=O)c1c(O)c2ncc(Cc3ccc(F)cc3)cc2n(C)c1=O | 8.70 |
| CNC(=O)c1c(O)c2ncc(Cc3ccc(F)cc3)cc2[nH]c1=O | 8.52 |

molecular target: Human immunodeficiency virus type 1 integrase (Human immunodeficiency virus 1, UniProt Q7ZJM1); test: Inhibition of HIV1 integrase strand transfer activity; details: not given
Sequence (Q7ZJM1 whole entry): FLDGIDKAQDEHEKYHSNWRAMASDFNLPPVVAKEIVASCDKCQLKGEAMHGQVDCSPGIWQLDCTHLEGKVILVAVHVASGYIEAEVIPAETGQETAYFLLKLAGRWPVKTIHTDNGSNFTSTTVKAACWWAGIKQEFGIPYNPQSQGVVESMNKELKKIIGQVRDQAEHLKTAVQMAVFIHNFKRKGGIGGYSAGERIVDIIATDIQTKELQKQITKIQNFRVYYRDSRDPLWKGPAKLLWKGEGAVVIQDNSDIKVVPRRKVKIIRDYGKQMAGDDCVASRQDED

| SMILES | pIC50 |
| --- | --- |
| Cn1c(=O)c(C(=O)NCC(F)F)c(O)c2ncc(Cc3ccc(F)cc3)cc21 | 8.30 |
| Cn1c(=O)c(C(=O)NCCCO)c(O)c2ncc(Cc3ccc(F)cc3)cc21 | 8.30 |
| C[C@H](CO)NC(=O)c1c(O)c2ncc(Cc3ccc(F)cc3)cc2n(C)c1=O | 8.10 |
| Cn1c(=O)c(C(=O)NC(C)(C)CO)c(O)c2ncc(Cc3ccc(F)cc3)cc21 | 8.22 |
| Cn1c(=O)c(C(=O)NC2(CO)CCCC2)c(O)c2ncc(Cc3ccc(F)cc3)cc21 | 8.15 |
| C[C@H](O)CNC(=O)c1c(O)c2ncc(Cc3ccc(F)cc3)cc2n(C)c1=O | 8.70 |
| C[C@H](CO)CNC(=O)c1c(O)c2ncc(Cc3ccc(F)cc3)cc2n(C)c1=O | 8.40 |
| Cn1c(=O)c(C(=O)NCCCN2CCCC2)c(O)c2ncc(Cc3ccc(F)cc3)cc21 | 8.22 |
| CC(C)CCNC(=O)c1c(O)c2ncc(Cc3ccc(F)cc3)cc2[nH]c1=O | 8.30 |
| CCOCCNC(=O)c1c(O)c2ncc(Cc3ccc(F)cc3)cc2[nH]c1=O | 8.05 |
| CC(C)OCCCNC(=O)c1c(O)c2ncc(Cc3ccc(F)cc3)cc2[nH]c1=O | 8.05 |
| O=C(NCCCO)c1c(O)c2ncc(Cc3ccc(F)cc3)cc2[nH]c1=O | 7.96 |
| O=C(NCCN1CCCCC1)c1c(O)c2ncc(Cc3ccc(F)cc3)cc2[nH]c1=O | 7.85 |
| O=C(NCCCN1CCCC1)c1c(O)c2ncc(Cc3ccc(F)cc3)cc2[nH]c1=O | 7.64 |
| O=C(NCCCN1CCCC1=O)c1c(O)c2ncc(Cc3ccc(F)cc3)cc2[nH]c1=O | 8.40 |
| O=C(NCCN1CCOCC1)c1c(O)c2ncc(Cc3ccc(F)cc3)cc2[nH]c1=O | 8.15 |
| O=C(NCCCN1CCOCC1)c1c(O)c2ncc(Cc3ccc(F)cc3)cc2[nH]c1=O | 8.10 |
| CN1CCN(CCCNC(=O)c2c(O)c3ncc(Cc4ccc(F)cc4)cc3[nH]c2=O)CC1 | 7.96 |
| CCNC(=O)c1c(O)c2ncc(Cc3ccc(F)cc3)cc2n(C)c1=O | 8.40 |
| NC(=O)c1c(O)c2ncc(Cc3ccc(F)cc3)cc2[nH]c1=O | 7.35 |
| CNC(=O)c1c(O)c2ncc(Cc3ccc(F)cc3)cc2[nH]c1=O | 8.22 |

test system: not listed separately; test: Therapeutic index, ratio of cytotoxicity against human MT4 cells to antiviral activity against HIV; format: cell-based; details: read-out: TI

| SMILES | selectivity ratio |
| --- | --- |
| C[C@H](CO)NC(=O)c1c(O)c2ncc(Cc3ccc(F)cc3)cc2n(C)c1=O | > 12500 |
| O=C(NCCN1CCOCC1)c1c(O)c2ncc(Cc3ccc(F)cc3)cc2[nH]c1=O | > 250 |
